According to PubChem BioAssay AID1963837 (Molecular Pharmacology Branch, DTP, NCI, 2024):

Tested on: 843126-344-R-J1-PDC complex spheroid viability
Assay: Anticancer human tumor 843126-344-R-J1-PDC patient-derived melanoma cell line growth inhibition [POLQ]
Details: for IC50: curve of first compound; for viability, T/C: stronger effect = lower value; active = viability on the fitted dose curve at most 10% of control; inactive = the rest
Outline: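 Complex spheroid viability model combining PDC tumour cells with endothelial (HUVEC) and MSC stromal cells. Novobiocin, ART-558 or RP6685 were tested singly and in combination with standard and investigational anticancer drugs. Each was titrated in half-log steps from near clinical Cmax, or from 10 microM where Cmax was unknown.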

[1] = second compound 0.0316 µM, first compound 0.00316 µM
[2] = second compound 0.0316 µM, first compound 0.01 µM
[3] = second compound 0.0316 µM, first compound 0.0316 µM
[4] = second compound 0.0316 µM, first compound 0.1 µM
[5] = second compound 0.1 µM, first compound 0.00316 µM
[6] = second compound 0.1 µM, first compound 0.01 µM
[7] = second compound 0.1 µM, first compound 0.0316 µM
[8] = second compound 0.1 µM, first compound 0.1 µM
[9] = second compound 0.316 µM, first compound 0.00316 µM
[10] = second compound 0.316 µM, first compound 0.01 µM
[11] = second compound 0.316 µM, first compound 0.0316 µM
[12] = second compound 0.316 µM, first compound 0.1 µM
[13] = second compound 1 µM, first compound 0.00316 µM
[14] = second compound 1 µM, first compound 0.01 µM
[15] = second compound 1 µM, first compound 0.0316 µM
[16] = second compound 1 µM, first compound 0.1 µM
[17] = second compound 3.16 µM, first compound 0.00316 µM
[18] = second compound 3.16 µM, first compound 0.01 µM
[19] = second compound 3.16 µM, first compound 0.0316 µM
[20] = second compound 3.16 µM, first compound 0.1 µM
[21] = second compound 10 µM, first compound 0.00316 µM
[22] = second compound 10 µM, first compound 0.01 µM
[23] = second compound 10 µM, first compound 0.0316 µM
[24] = second compound 10 µM, first compound 0.1 µM
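Throughout, for viability, T/C: spheroids exposed to drugs for seven days before readout.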

COc1cccc(OCCCN)c1-c1cc(Nc2cnc(C#N)cn2)n[nH]1 + Cc1cccc(N(C)C(=O)C2C(O)CCN2c2nc(C)cc(C(F)(F)F)c2C#N)c1
96.1 nM: IC50 (second compound 0.0316 µM)
79.9 nM: IC50 (second compound 3.16 µM)
125 nM: IC50 (second compound 1 µM)
82.4 nM: IC50 (second compound 0.1 µM)
81.2 nM: IC50 (second compound 10 µM)
157 nM: IC50 (second compound 0.316 µM)
inactive: viability, T/C [1] 96.8% | viability, T/C [2] 75.1% | viability, T/C [3] 63.5% | viability, T/C [4] 48.8% | viability, T/C (second compound 0.0316 µM, first compound 0.316 µM) 40.5% | viability, T/C (second compound 0.0316 µM, first compound 1 µM) 34.3% | viability, T/C [5] 102% | viability, T/C [6] 71.6% | viability, T/C [7] 61.1% | viability, T/C [8] 48% | viability, T/C (second compound 0.1 µM, first compound 0.316 µM) 42.6% | viability, T/C (second compound 0.1 µM, first compound 1 µM) 38.2% | viability, T/C [9] 90% | viability, T/C [10] 75.9% | viability, T/C [11] 59.8% | viability, T/C [12] 59% | viability, T/C (second compound 0.316 µM, first compound 0.316 µM) 43.3% | viability, T/C (second compound 0.316 µM, first compound 1 µM) 34.4% | viability, T/C [13] 92.9% | viability, T/C [14] 72.1% | viability, T/C [15] 62.4% | viability, T/C [16] 54.7% | viability, T/C (second compound 1 µM, first compound 0.316 µM) 42.3% | viability, T/C (second compound 1 µM, first compound 1 µM) 32.7% | viability, T/C [17] 98.3% | viability, T/C [18] 77.3% | viability, T/C [19] 58.3% | viability, T/C [20] 47.5% | viability, T/C (second compound 3.16 µM, first compound 0.316 µM) 41.7% | viability, T/C (second compound 3.16 µM, first compound 1 µM) 33.8% | viability, T/C [21] 108% | viability, T/C [22] 67.4% | viability, T/C [23] 64.3% | viability, T/C [24] 48.9% | viability, T/C (second compound 10 µM, first compound 0.316 µM) 42.5% | viability, T/C (second compound 10 µM, first compound 1 µM) 40.4%

Cn1ncnc1[C@H]1c2n[nH]c(=O)c3cc(F)cc(c23)N[C@@H]1c1ccc(F)cc1 + Cc1cccc(N(C)C(=O)C2C(O)CCN2c2nc(C)cc(C(F)(F)F)c2C#N)c1
> 100 nM: IC50 (second compound 0.0316 µM) | IC50 (second compound 0.1 µM) | IC50 (second compound 0.316 µM) | IC50 (second compound 1 µM) | IC50 (second compound 3.16 µM) | IC50 (second compound 10 µM)
inactive: viability, T/C (second compound 0.0316 µM, first compound 0.000316 µM) 83.1% | viability, T/C (second compound 0.0316 µM, first compound 0.001 µM) 80% | viability, T/C [1] 92.3% | viability, T/C [2] 74.1% | viability, T/C [3] 91.9% | viability, T/C [4] 71.8% | viability, T/C (second compound 0.1 µM, first compound 0.000316 µM) 94.8% | viability, T/C (second compound 0.1 µM, first compound 0.001 µM) 91.6% | viability, T/C [5] 96.6% | viability, T/C [6] 73% | viability, T/C [7] 88.7% | viability, T/C [8] 66% | viability, T/C (second compound 0.316 µM, first compound 0.000316 µM) 82.8% | viability, T/C (second compound 0.316 µM, first compound 0.001 µM) 82.5% | viability, T/C [9] 89.5% | viability, T/C [10] 86.3% | viability, T/C [11] 88.7% | viability, T/C [12] 86.5% | viability, T/C (second compound 1 µM, first compound 0.000316 µM) 73.2% | viability, T/C (second compound 1 µM, first compound 0.001 µM) 67.6% | viability, T/C [13] 92.6% | viability, T/C [14] 86.8% | viability, T/C [15] 76.4% | viability, T/C [16] 78.6% | viability, T/C (second compound 3.16 µM, first compound 0.000316 µM) 67.4% | viability, T/C (second compound 3.16 µM, first compound 0.001 µM) 78.7% | viability, T/C [17] 88.9% | viability, T/C [18] 77.6% | viability, T/C [19] 87.5% | viability, T/C [20] 67.3% | viability, T/C (second compound 10 µM, first compound 0.000316 µM) 76.3% | viability, T/C (second compound 10 µM, first compound 0.001 µM) 87.8% | viability, T/C [21] 84.2% | viability, T/C [22] 77.4% | viability, T/C [23] 86.2% | viability, T/C [24] 79.9%

CC(=O)O[C@H]1C(=O)[C@@]2(C)[C@H]([C@H](OC(=O)c3ccccc3)[C@]3(O)C[C@H](OC(=O)[C@H](O)[C@@H](NC(=O)c4ccccc4)c4ccccc4)C(C)=C1C3(C)C)[C@]1(OC(C)=O)CO[C@@H]1C[C@@H]2O + Nc1ccc(C#CCN(C(=O)Cc2ncc(C(F)(F)F)cc2C(F)(F)F)c2ccc(F)cc2)nn1
> 3000 nM: IC50 (second compound 0.0316 µM) | IC50 (second compound 0.1 µM) | IC50 (second compound 0.316 µM) | IC50 (second compound 1 µM) | IC50 (second compound 3.16 µM) | IC50 (second compound 10 µM)
inactive: viability, T/C (second compound 0.0316 µM, first compound 0.00949 µM) 65.6% | viability, T/C (second compound 0.0316 µM, first compound 0.03 µM) 58.7% | viability, T/C (second compound 0.0316 µM, first compound 0.0949 µM) 65% | viability, T/C (second compound 0.0316 µM, first compound 0.3 µM) 65.8% | viability, T/C (second compound 0.0316 µM, first compound 0.949 µM) 68.5% | viability, T/C (second compound 0.0316 µM, first compound 3 µM) 69.6% | viability, T/C (second compound 0.1 µM, first compound 0.00949 µM) 65.6% | viability, T/C (second compound 0.1 µM, first compound 0.03 µM) 53.5% | viability, T/C (second compound 0.1 µM, first compound 0.0949 µM) 56.7% | viability, T/C (second compound 0.1 µM, first compound 0.3 µM) 61.5% | viability, T/C (second compound 0.1 µM, first compound 0.949 µM) 78.6% | viability, T/C (second compound 0.1 µM, first compound 3 µM) 61.2% | viability, T/C (second compound 0.316 µM, first compound 0.00949 µM) 68.1% | viability, T/C (second compound 0.316 µM, first compound 0.03 µM) 53.4% | viability, T/C (second compound 0.316 µM, first compound 0.0949 µM) 70.7% | viability, T/C (second compound 0.316 µM, first compound 0.3 µM) 61.6% | viability, T/C (second compound 0.316 µM, first compound 0.949 µM) 64.8% | viability, T/C (second compound 0.316 µM, first compound 3 µM) 73.5% | viability, T/C (second compound 1 µM, first compound 0.00949 µM) 67.2% | viability, T/C (second compound 1 µM, first compound 0.03 µM) 57.1% | viability, T/C (second compound 1 µM, first compound 0.0949 µM) 62.2% | viability, T/C (second compound 1 µM, first compound 0.3 µM) 55.6% | viability, T/C (second compound 1 µM, first compound 0.949 µM) 62.8% | viability, T/C (second compound 1 µM, first compound 3 µM) 62.7% | viability, T/C (second compound 3.16 µM, first compound 0.00949 µM) 69.3% | viability, T/C (second compound 3.16 µM, first compound 0.03 µM) 62.1% | viability, T/C (second compound 3.16 µM, first compound 0.0949 µM) 54.9% | viability, T/C (second compound 3.16 µM, first compound 0.3 µM) 59.8% | viability, T/C (second compound 3.16 µM, first compound 0.949 µM) 63.7% | viability, T/C (second compound 3.16 µM, first compound 3 µM) 61.5% | viability, T/C (second compound 10 µM, first compound 0.00949 µM) 65.5% | viability, T/C (second compound 10 µM, first compound 0.03 µM) 57.6% | viability, T/C (second compound 10 µM, first compound 0.0949 µM) 61.5% | viability, T/C (second compound 10 µM, first compound 0.3 µM) 61.3% | viability, T/C (second compound 10 µM, first compound 0.949 µM) 60.2% | viability, T/C (second compound 10 µM, first compound 3 µM) 61.8%
